Read-outs that look alike come from different tables or passages of the source.
What was measured:
[1] = test system: SARS-CoV-2 (UPenn/Philadelphia strain); experiment: Human sinonasal ALI infection with SARS-CoV-2, nucleocapsid staining and quantitative fluorescence imaging; settings: 1 mg/mL quinine sulfate, 48 hrs; average of two measurements
[2] = test system: human H1N1 influenza A strain PR8; assay type: cell-based; settings: 0.1% quinine in 0.9% sodium chloride from 1 h post infection, daily, 72 hrs
[3] = test system: human ciliated sinonasal air-liquid-interface (ALI) cells
[4] = test system: airway inflammation; settings: murine model; cited from earlier work
[5] = test system: nitric oxide (NO); experiment: NO production after nasal instillation in ferrets (nasal wash); assay type: in vivo, ferret

C=C[C@H]1C[N@@]2CC[C@H]1C[C@H]2[C@H](O)c1ccnc2ccc(OC)cc12 [quinine]
Quinine Rx (% infected) [1]: 2.32% | transcripts for both the NP and IAV-M genes ([2]; subject A cells, MOI of 1): lesser relative reduction | transcripts for both the NP and IAV-M genes ([2]; subject B (more mature) ALI culture): marked relative reduction | cell viability [3]: remained viable and visually healthy | airway inflammation (BAL, histology, PFTs) [4]: reduce airway inflammation | NO in nasal wash ([5]; 5 min after 200 μL of 1 mg/mL solution intranasal): 6.64 ng/mL | NO in nasal wash ([5]; 10 min after 200 μL of 1 mg/mL solution intranasal): 6.42 ng/mL | NO in nasal wash ([5]; 15 min after 200 μL of 1 mg/mL solution intranasal): 6.52 ng/mL

Reference: US20230144186A1 (The Trustees of the University of Pennsylvania, priority 2020, published 2023)
